{
  "source": "patent US20050191710A1",
  "about": "“Method for labeling a membrane-localized protein” (priority 2004, published 2005)",
  "key": {"BirA [1]": {"molecular_target": "T1, BirA (Escherichia coli, UniProt P06709)", "T1 sequence (P06709 whole entry)": "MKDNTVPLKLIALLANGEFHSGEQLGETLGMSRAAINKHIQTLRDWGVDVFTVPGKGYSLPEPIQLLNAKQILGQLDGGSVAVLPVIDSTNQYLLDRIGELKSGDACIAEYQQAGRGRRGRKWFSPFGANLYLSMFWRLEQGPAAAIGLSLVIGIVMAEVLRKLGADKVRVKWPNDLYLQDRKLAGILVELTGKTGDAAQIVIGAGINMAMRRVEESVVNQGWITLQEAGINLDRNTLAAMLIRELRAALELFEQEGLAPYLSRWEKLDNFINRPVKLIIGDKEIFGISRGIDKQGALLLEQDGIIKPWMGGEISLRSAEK", "details": "read-out: equilibrium dissociation constant; cited from earlier work"}, "CFTR": {"test_system": "CFTR", "assay": "cAMP-stimulated iodide efflux from stably transfected cells", "type": "cell-based, baby hamster kidney (BHK) cells", "details": "for peak iodide efflux: compared to wild-type CFTR", "text": "Since CFTR functions as a chloride channel, responsiveness of the tagged channels to PKA was examined by comparing cAMP-stimulated iodide efflux from cells stably transfected with 1) wild-type CFTR, 2) CFTR with a polyhistidine tag, 3) wild-type CFTR bearing both polyhistidine and biotinylation tags or 4) a ΔF508 CFTR construct that was identical to 3) except for deletion of phenylalanine 508. […] Therefore, similar to epitope-tagging of the fourth extracellular loop (Benharouga, et al. (2003) J. Biol. Chem. 278:22079-22089; Schultz, et al. (1997) Am. J. Physiol. Cell Physiol. 273:C2080-C2089), iodide efflux responses to PKA were preserved after insertion of a biotinylation target sequence.\nIodide effluxes were measured using standard methods (Cormet-Boyaka, et al. (2002) Proc. Natl. Acad. Sci. USA 99:12477-12482; Cormet-Boyaka, et al. (2002) Proc. Natl. Acad. Sci. USA 99:12477-12482). Briefly, cells were incubated with iodide loading buffer (136 mM NaI, 3 mM KNO3, 2 mM Ca(NO3)2, 11 mM glucose and 20 mM HEPES, pH 7.4) for 1 hour at room temperature. Extracellular NaI was removed by rinsing with iodide-free efflux buffer (same as loading buffer except NaNO3 replaced NaI). Samples were collected by removing the efflux buffer at 1 minute intervals and replacing it with fresh solution. The first three samples established the baseline efflux rate, then cpt-cAMP was added and samples were collected at 1 minute intervals in the continuous presence of cpt-cAMP for 15 minutes. Iodide was measured using an iodide sensitive electrode (Orion Research, Inc., Boston, Mass., USA) and converted to nmoles released/minutes."}, "BirA [2]": {"molecular_target": "T1, BirA", "details": "estimated from initial rate of biotinyl-5′-AMP synthesis; read-out: KM for ATP; cited from earlier work"}},
  "data": [
    {"compound": "O=C(O)CCCC[C@@H]1SC[C@@H]2NC(=O)N[C@@H]21", "note": "[biotin]", "values": [
      {"measurement": "Kd", "setting": "BirA [1]", "value": "10 to 100", "unit": "nM"}
    ]},
    {"compound": "CFTR with a polyhistidine tag: CFTR with glycine and ten histidines added to the C-terminus [reference compound]", "values": [
      {"measurement": "peak iodide efflux", "setting": "CFTR; cAMP-stimulated", "value": "not diminished"}
    ]},
    {"compound": "ΔF508CFTR-biotintag: ΔF508 CFTR construct with biotinylation tag, deletion of phenylalanine 508 (disease mutation)", "values": [
      {"measurement": "cAMP-stimulated iodide efflux", "setting": "CFTR", "value": "not detected"}
    ]},
    {"compound": "Nc1ncnc2c1ncn2[C@@H]1O[C@H](COP(=O)(O)OP(=O)(O)OP(=O)(O)O)[C@@H](O)[C@H]1O", "note": "[ATP]", "values": [
      {"measurement": "Km", "setting": "BirA [2]", "value": 3000, "unit": "µM"}
    ]},
    {"compound": "wild-type CFTR bearing both polyhistidine and biotinylation tags: CFTR-biotintag with ten histidines at the C-terminus for purification on nickel-NTA beads", "values": [
      {"measurement": "delay of iodide efflux compared to wild-type CFTR", "setting": "CFTR; cAMP-stimulated", "value": "~1", "unit": "min"},
      {"measurement": "peak iodide efflux", "setting": "CFTR; cAMP-stimulated", "value": "not diminished"}
    ]}
  ]
}
